pIC50: −log10 of the molar value. Like-named read-outs stand apart in the source and are kept apart here.
Experiments:
NCI-H1155 cells = assay: NSCLC cell viability, CellTiter-Glo, NCI-H1155 cells; format: cell-based; details: Homo sapiens; NCI-H1155 cells, CellTiter-Glo, 72 hours of treatment; read-out: Cell viability classification (NCI-H1155)
GSPT1 = GSPT1 (Homo sapiens, UniProt P15170+Q96SW2); format: cell-based
Method: GSPT1_HiBIT_HEK293 cells were culture in DMEM medium with 10% FBS under standard tissue culture conditions. […] GSPT1 level was determined in along with the Nano-Glo HiBiT Lytic Detection system [Promega N3050] with final concentration of 1×. The luminescence was normalized to that of DMSO-treated samples. DC50 values were obtained using three-parameter non-linear regressions using Prism (GraphPad).

[1] = DC50, GSPT1_HiBIT_HEK293 cells, 16 hours, Nano-Glo HiBiT Lytic Detection; read-out: GSPT1 degradation classification
[2] = read-out: GSPT1 degradation classification; DC50, GSPT1_HiBIT_HEK293 cells, 16 hours, Nano-Glo HiBiT Lytic Detection

Sequence of GSPT1 (P15170 whole entry): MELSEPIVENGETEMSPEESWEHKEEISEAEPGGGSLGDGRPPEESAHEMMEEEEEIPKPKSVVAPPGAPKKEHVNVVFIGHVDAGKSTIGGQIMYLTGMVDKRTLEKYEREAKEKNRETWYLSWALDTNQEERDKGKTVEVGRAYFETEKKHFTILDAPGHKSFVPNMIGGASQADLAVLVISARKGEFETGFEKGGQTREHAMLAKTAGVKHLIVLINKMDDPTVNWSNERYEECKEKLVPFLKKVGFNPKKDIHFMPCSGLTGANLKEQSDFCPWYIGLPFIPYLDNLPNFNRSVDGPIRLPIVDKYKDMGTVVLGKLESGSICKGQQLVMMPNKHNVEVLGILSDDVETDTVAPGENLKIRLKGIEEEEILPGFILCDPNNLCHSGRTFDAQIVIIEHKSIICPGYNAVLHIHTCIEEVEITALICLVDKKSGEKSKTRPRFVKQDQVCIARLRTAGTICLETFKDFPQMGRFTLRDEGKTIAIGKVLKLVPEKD
Sequence of GSPT1 (Q96SW2 whole entry): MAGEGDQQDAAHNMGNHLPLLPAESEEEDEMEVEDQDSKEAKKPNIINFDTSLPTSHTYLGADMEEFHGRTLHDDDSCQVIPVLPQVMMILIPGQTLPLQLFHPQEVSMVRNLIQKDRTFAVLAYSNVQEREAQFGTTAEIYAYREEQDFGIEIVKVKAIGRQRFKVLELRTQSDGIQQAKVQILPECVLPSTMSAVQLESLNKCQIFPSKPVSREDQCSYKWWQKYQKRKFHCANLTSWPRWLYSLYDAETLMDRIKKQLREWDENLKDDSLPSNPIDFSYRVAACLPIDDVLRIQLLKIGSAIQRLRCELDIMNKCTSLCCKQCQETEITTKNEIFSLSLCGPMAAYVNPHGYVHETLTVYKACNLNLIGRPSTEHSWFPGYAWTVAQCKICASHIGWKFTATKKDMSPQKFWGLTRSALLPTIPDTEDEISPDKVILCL
Sequence of GSPT1 (Q16531 whole entry partner): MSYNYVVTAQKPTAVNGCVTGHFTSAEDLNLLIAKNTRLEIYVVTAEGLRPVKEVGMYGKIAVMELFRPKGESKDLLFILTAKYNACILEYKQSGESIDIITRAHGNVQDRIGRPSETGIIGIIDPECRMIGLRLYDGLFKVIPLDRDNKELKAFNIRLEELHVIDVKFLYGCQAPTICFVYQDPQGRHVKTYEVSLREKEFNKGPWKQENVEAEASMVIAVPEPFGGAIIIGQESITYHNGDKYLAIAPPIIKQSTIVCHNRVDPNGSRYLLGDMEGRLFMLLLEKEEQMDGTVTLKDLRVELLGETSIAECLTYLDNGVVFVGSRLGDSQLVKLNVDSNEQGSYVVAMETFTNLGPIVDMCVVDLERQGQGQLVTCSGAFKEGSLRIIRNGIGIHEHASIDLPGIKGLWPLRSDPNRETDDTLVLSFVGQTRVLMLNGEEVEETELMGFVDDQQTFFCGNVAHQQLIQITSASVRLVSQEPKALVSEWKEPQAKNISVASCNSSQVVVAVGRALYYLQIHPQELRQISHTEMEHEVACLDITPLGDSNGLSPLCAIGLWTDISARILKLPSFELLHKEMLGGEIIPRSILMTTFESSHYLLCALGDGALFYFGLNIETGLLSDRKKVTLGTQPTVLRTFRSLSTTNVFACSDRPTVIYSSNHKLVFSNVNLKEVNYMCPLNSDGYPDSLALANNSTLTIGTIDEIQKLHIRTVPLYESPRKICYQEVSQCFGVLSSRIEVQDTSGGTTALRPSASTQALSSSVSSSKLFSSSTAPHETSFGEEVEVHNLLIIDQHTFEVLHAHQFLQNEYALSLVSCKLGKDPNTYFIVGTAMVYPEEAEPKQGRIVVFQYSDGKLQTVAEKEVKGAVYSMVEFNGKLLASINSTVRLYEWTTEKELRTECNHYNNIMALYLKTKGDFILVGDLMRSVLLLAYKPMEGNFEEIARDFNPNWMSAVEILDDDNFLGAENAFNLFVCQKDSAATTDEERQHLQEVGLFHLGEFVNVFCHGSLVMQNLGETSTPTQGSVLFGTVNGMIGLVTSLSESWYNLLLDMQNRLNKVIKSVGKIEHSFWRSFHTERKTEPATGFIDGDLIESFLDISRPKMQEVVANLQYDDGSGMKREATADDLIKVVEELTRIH

| Structure (SMILES) | pIC50 (NCI-H1155 cells) | DC50 (GSPT1; [1]) | DC50 (GSPT1; [2]) |
| --- | --- | --- | --- |
| O=C1CCC(c2nc3ccc(C(=O)N4CC5(C=C(c6ccc(F)cc6)C5)C4)cc3o2)C(=O)N1 (stereo not shown) [Example 206, 3-(6-(6-(4-fluorophenyl)-2-azaspiro[3.3]hept-5-ene-2-carbonyl)benzo[d]oxazol-2-yl)piperidine-2,6-dione] | < 6.00 | > 1 µM | – |
| Cc1cccc2c1CN(C(=O)c1ccc3c(c1)CN(C1CCC(=O)NC1=O)C3=O)C2 (stereo not shown) [Example 130, 3-(5-(4-methylisoindoline-2-carbonyl)-1-oxoisoindolin-2-yl)piperidine-2,6-dione] | 7.00 to 8.00 | – | < 0.1 µM |
| O=C1CCC(N2Cc3cc(C(=O)N4Cc5ccc(OC(F)(F)F)c(F)c5C4)ccc3C2=O)C(=O)N1 (stereo not shown) [Example 263, 3-(5-(4-fluoro-5-(trifluoromethoxy)isoindoline-2-carbonyl)-1-oxoisoindolin-2-yl)piperidine-2,6-dione] | 7.00 to 8.00 | – | 0.1 to 0.3 µM |
| O=C1CCC(N2Cc3cc(C(=O)N4CC5(C=C(c6ccc(C(F)(F)F)c(F)c6)C5)C4)ccc3C2=O)C(=O)N1 (stereo not shown) [Example 240, 3-(5-(6-(3-fluoro-4-(trifluoromethyl)phenyl)-2-azaspiro[3.3]hept-5-ene-2-carbonyl)-1-oxoisoindolin-2-yl)piperidine-2,6-dione] | > 8.00 | – | < 0.1 µM |
| O=C1CCC(N2Cc3cc(C(=O)N4CCC5(C4)CC(F)(F)C5)ccc3C2=O)C(=O)N1 (stereo not shown) [Example 189, 3-(5-(2,2-difluoro-6-azaspiro[3.4]octane-6-carbonyl)-1-oxoisoindolin-2-yl)piperidine-2,6-dione] | 6.00 to 7.00 | – | > 1 µM |
| N#Cc1ccc(C2CC3(CC(NC(=O)c4ccc5c(c4)CN(C4CCC(=O)NC4=O)C5=O)C3)C2)cc1 (stereo not shown) [Example 219, N-(6-(4-cyanophenyl)spiro[3.3]heptan-2-yl)-2-(2,6-dioxopiperidin-3-yl)-1-oxoisoindoline-5-carboxamide] | 7.00 to 8.00 | 0.1 to 0.3 µM | – |
| O=C1CCC(c2nc3ccc(C(=O)N4Cc5cccc(C(F)(F)F)c5C4)cc3o2)C(=O)N1 (stereo not shown) [Example 174, 3-(6-(4-(trifluoromethyl)isoindoline-2-carbonyl)benzo[d]oxazol-2-yl)piperidine-2,6-dione] | 6.00 to 7.00 | 0.3 to 1 µM | – |
| O=C1CCC(N2Cc3cc(C(=O)NC4CC5(C4)CC(c4ccc(C(F)(F)F)cc4)C5)ccc3C2=O)C(=O)N1 (stereo not shown) [Example 226, 2-(2,6-dioxopiperidin-3-yl)-1-oxo-N-(6-(4-(trifluoromethyl)phenyl)spiro[3.3]heptan-2-yl)isoindoline-5-carboxamide] | 7.00 to 8.00 | 0.1 to 0.3 µM | – |
| O=C1CCC(N2Cc3cc(C(=O)N4Cc5c(Cl)ccc(C(F)(F)F)c5C4)ccc3C2=O)C(=O)N1 (stereo not shown) [Example 261, 3-(5-(4-chloro-7-(trifluoromethyl)isoindoline-2-carbonyl)-1-oxoisoindolin-2-yl)piperidine-2,6-dione] | 7.00 to 8.00 | – | 0.1 to 0.3 µM |
| O=C1CCC(N2Cc3cc(C(=O)N4CC5(C=C(c6cccc(F)c6)C5)C4)ccc3C2=O)C(=O)N1 (stereo not shown) [Example 207, 3-(5-(6-(3-fluorophenyl)-2-azaspiro[3.3]hept-5-ene-2-carbonyl)-1-oxoisoindolin-2-yl)piperidine-2,6-dione] | 7.00 to 8.00 | – | < 0.1 µM |
| O=C1CCC(c2nc3ccc(C(=O)N4Cc5cccc(Cl)c5C4)cc3o2)C(=O)N1 (stereo not shown) [Example 158, 3-(6-(4-chloroisoindoline-2-carbonyl)benzo[d]oxazol-2-yl)piperidine-2,6-dione] | 7.00 to 8.00 | 0.1 to 0.3 µM | – |
| O=C1CCC(N2Cc3cc(C(=O)N4CC5(C4)CC(F)(c4ccccc4F)C5)ccc3C2=O)C(=O)N1 (stereo not shown) [Example 204, 3-(5-(6-fluoro-6-(2-fluorophenyl)-2-azaspiro[3.3]heptane-2-carbonyl)-1-oxoisoindolin-2-yl)piperidine-2,6-dione] | 6.00 to 7.00 | – | 0.1 to 0.3 µM |
| O=C1CCC(N2Cc3cc(C(=O)N4CC5(C=C(c6ccc(F)cc6)C5)C4)ccc3C2=O)C(=O)N1 (stereo not shown) [Example 169, 3-(5-(6-(4-fluorophenyl)-2-azaspiro[3.3]hept-5-ene-2-carbonyl)-1-oxoisoindolin-2-yl)piperidine-2,6-dione] | 7.00 to 8.00 | – | > 1 µM |
| O=C1CCC(c2nc3ccc(C(=O)N4Cc5cccc(F)c5C45CC5)cc3o2)C(=O)N1 (stereo not shown) [Example 211, 3-(6-(7′-fluorospiro[cyclopropane-1,1′-isoindoline]-2′-carbonyl)benzo[d]oxazol-2-yl)piperidine-2,6-dione] | 6.00 to 7.00 | > 1 µM | – |
| O=C1CCN(c2ccc3cc(COC(=O)Nc4cc(OC(F)(F)F)ccc4F)ccc3c2)C(=O)N1 [Example 143, (6-(2,4-dioxotetrahydropyrimidin-1(2H)-yl)naphthalen-2-yl)methyl(2-fluoro-5-(trifluoromethoxy)phenyl)carbamate] | 6.00 to 7.00 | – | – |
| O=C1CCC(N2Cc3cc(C(=O)N4CC5(CCC(C(F)(F)F)C5)C4)ccc3C2=O)C(=O)N1 (stereo not shown) [Example 222, 3-(1-oxo-5-(6-(trifluoromethyl)-2-azaspiro[3.4]octane-2-carbonyl)isoindolin-2-yl)piperidine-2,6-dione] | 7.00 to 8.00 | – | – |

| Structure (SMILES) | pIC50 (NCI-H1155 cells) | DC50 (GSPT1; [1]) | DC50 (GSPT1; [2]) |
| --- | --- | --- | --- |
| O=C1CCC(N2Cc3cc(C(=O)N4Cc5ccc(Cl)c(F)c5C4)ccc3C2=O)C(=O)N1 (stereo not shown) [Example 172, 3-(5-(5-chloro-4-fluoroisoindoline-2-carbonyl)-1-oxoisoindolin-2-yl)piperidine-2,6-dione] | 7.00 to 8.00 | – | – |
| O=C1CCC(N2Cc3cc(C(=O)N4CC(F)(c5ccc(F)cc5)C4)ccc3C2=O)C(=O)N1 (stereo not shown) [Example 170, 3-(5-(3-fluoro-3-(4-fluorophenyl)azetidine-1-carbonyl)-1-oxoisoindolin-2-yl)piperidine-2,6-dione] | 6.00 to 7.00 | – | – |
| O=C1CCC(c2nc3ccc(C(=O)N4CC5(CCC(C(F)(F)F)CC5)C4)cc3o2)C(=O)N1 (stereo not shown) [Example 259, 3-(6-(7-(trifluoromethyl)-2-azaspiro[3.5]nonane-2-carbonyl)benzo[d]oxazol-2-yl)piperidine-2,6-dione] | < 6.00 | – | – |
| N#Cc1ccc2c(c1F)CN(C(=O)c1ccc3c(c1)CN(C1CCC(=O)NC1=O)C3=O)C2 (stereo not shown) [Example 150, 2-(2-(2,6-dioxopiperidin-3-yl)-1-oxoisoindoline-5-carbonyl)-4-fluoroisoindoline-5-carbonitrile] | 6.00 to 7.00 | – | – |
| O=C1CCC(N2Cc3cc(C(=O)N4CC5(CC(c6ccc(C(F)(F)F)c(F)c6)C5)C4)ccc3C2=O)C(=O)N1 (stereo not shown) [Example 245, 3-(5-(6-(3-fluoro-4-(trifluoromethyl)phenyl)-2-azaspiro[3.3]heptane-2-carbonyl)-1-oxoisoindolin-2-yl)piperidine-2,6-dione] | 7.00 to 8.00 | – | – |
| O=C1CCC(N2Cc3cc(C(=O)N4CC(c5cccc(F)c5)C4)ccc3C2=O)C(=O)N1 (stereo not shown) [Example 193, 3-(5-(3-(3-fluorophenyl)azetidine-1-carbonyl)-1-oxoisoindolin-2-yl)piperidine-2,6-dione] | 6.00 to 7.00 | – | – |
| O=C1CCC(c2nc3cc(COC(=O)NC4CC5(CCC(F)(F)CC5)C4)ccc3o2)C(=O)N1 (stereo not shown) [Example 260, (2-(2,6-dioxopiperidin-3-yl)benzo[d]oxazol-5-yl)methyl (7,7-difluorospiro[3.5]nonan-2-yl)carbamate] | 6.00 to 7.00 | – | – |
| COc1ccc(C2CC3(C2)CN(C(=O)c2ccc4c(c2)CN(C2CCC(=O)NC2=O)C4=O)C3)cc1 (stereo not shown) [Example 233, 3-(5-(6-(4-methoxyphenyl)-2-azaspiro[3.3]heptane-2-carbonyl)-1-oxoisoindolin-2-yl)piperidine-2,6-dione] | < 6.00 | – | – |
| O=C1CCC(N2Cc3cc(C(=O)N4CCC5(CC(c6ccc(F)cc6)C5)C4)ccc3C2=O)C(=O)N1 (stereo not shown) [Example 248, 3-(5-(2-(4-fluorophenyl)-6-azaspiro[3.4]octane-6-carbonyl)-1-oxoisoindolin-2-yl)piperidine-2,6-dione] | 7.00 to 8.00 | – | – |
| O=C1CCC(N2Cc3cc(C(=O)N4CC5(C4)CC(O)(c4ccc(F)cc4)C5)ccc3C2=O)C(=O)N1 (stereo not shown) [Example 243, 3-(5-(6-(4-fluorophenyl)-6-hydroxy-2-azaspiro[3.3]heptane-2-carbonyl)-1-oxoisoindolin-2-yl)piperidine-2,6-dione] | < 6.00 | – | – |
| O=C1CCC(N2Cc3cc(C(=O)N4CC5(COC5)C4)ccc3C2=O)C(=O)N1 (stereo not shown) [Example 188, 3-(1-oxo-5-(2-oxa-6-azaspiro[3.3]heptane-6-carbonyl)isoindolin-2-yl)piperidine-2,6-dione] | < 6.00 | – | – |
| O=C1CCC(N2Cc3cc(C(=O)N4CC5(CC(c6ccc(F)cc6F)C5)C4)ccc3C2=O)C(=O)N1 (stereo not shown) [Example 229, 3-(5-(6-(2,4-difluorophenyl)-2-azaspiro[3.3]heptane-2-carbonyl)-1-oxoisoindolin-2-yl)piperidine-2,6-dione] | 7.00 to 8.00 | – | – |
| O=C1CCC(N2Cc3cc(C(=O)N4Cc5cc(F)cc(Cl)c5C4)ccc3C2=O)C(=O)N1 (stereo not shown) [Example 152, 3-(5-(4-chloro-6-fluoroisoindoline-2-carbonyl)-1-oxoisoindolin-2-yl)piperidine-2,6-dione] | 7.00 to 8.00 | – | – |
| Cc1ccc2c(c1F)CN(C(=O)c1ccc3c(c1)CN(C1CCC(=O)NC1=O)C3=O)C2 (stereo not shown) [Example 149, 3-(5-(4-fluoro-5-methylisoindoline-2-carbonyl)-1-oxoisoindolin-2-yl)piperidine-2,6-dione] | 7.00 to 8.00 | – | – |
| O=C1CCC(N2Cc3cc(C(=O)N4CCC5(CC(c6cccc(F)c6)C5)C4)ccc3C2=O)C(=O)N1 (stereo not shown) [Example 250, 3-(5-(2-(3-fluorophenyl)-6-azaspiro[3.4]octane-6-carbonyl)-1-oxoisoindolin-2-yl)piperidine-2,6-dione] | 6.00 to 7.00 | – | – |
| O=C1CCC(N2Cc3cc(C(=O)N4CC(c5ccc(F)cc5)C4)ccc3C2=O)C(=O)N1 (stereo not shown) [Example 192, 3-(5-(3-(4-fluorophenyl)azetidine-1-carbonyl)-1-oxoisoindolin-2-yl)piperidine-2,6-dione] | 6.00 to 7.00 | – | – |

Reference: patent US20260285872A1, “COMPOUNDS AND METHODS FOR DEGRADING GSPT1” (priority 2023, published 2026)
